Target: T1, USP28 (His-tagged USP28-FL-mammalian) (Homo sapiens, UniProt Q96RU2)
T1 construct: Expression of USP28 (1-1077)-TEV-6*His (pTT5 vector); made in house; host or cells: Expi293f cells (pTT5 vector)
T1 sequence (Q96RU2 1-1077): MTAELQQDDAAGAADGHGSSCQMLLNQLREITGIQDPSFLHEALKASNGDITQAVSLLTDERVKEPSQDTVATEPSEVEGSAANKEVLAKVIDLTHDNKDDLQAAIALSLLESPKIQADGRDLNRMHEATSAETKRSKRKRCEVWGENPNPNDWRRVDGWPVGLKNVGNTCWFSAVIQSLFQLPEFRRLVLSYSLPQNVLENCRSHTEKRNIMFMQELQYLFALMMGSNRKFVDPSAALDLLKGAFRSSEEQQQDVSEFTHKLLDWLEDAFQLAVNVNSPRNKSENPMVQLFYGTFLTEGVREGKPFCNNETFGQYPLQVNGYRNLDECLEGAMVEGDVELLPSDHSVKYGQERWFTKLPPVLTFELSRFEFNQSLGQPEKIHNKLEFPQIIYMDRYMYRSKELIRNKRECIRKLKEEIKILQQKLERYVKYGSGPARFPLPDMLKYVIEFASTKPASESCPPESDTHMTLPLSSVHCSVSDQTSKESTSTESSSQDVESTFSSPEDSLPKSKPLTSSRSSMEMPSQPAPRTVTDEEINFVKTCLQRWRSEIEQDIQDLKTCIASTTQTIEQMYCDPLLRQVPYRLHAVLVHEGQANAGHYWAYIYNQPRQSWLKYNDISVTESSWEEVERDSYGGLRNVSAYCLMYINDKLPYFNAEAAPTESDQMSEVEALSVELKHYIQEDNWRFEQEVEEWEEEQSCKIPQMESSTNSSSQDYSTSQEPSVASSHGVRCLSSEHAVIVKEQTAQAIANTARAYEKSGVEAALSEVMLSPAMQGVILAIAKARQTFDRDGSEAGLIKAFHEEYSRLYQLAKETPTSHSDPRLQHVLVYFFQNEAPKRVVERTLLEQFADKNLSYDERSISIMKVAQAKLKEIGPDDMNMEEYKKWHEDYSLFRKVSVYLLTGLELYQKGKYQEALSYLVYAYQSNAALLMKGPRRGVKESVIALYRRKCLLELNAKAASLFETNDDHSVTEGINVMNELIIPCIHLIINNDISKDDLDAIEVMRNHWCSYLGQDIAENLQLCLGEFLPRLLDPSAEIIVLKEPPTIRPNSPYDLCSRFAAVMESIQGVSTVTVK
Assay: Ubiquitin-Rhodamine 110 Assay for USP28 Activity, Example A-1(a)
Format: biochemical
Settings: Ub-Rh110 assay, Example A-1(a); read-out: USP28 A-1(a) IC50 range
Outline: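 Full-length His-tagged human USP28 (1-1077, Expi293f-expressed), […], with 25 nM Ub-Rh110 (<<Km) in pH 8.0 Tris buffer with BME, BGG, Triton X-100. 10-point dilutions (25 μM-1.3 nM), 45 min at room temperature, citric acid stop, fluorescence 485/535 nm; IC50 by 4-parameter fit.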

Row | SMILES | IC50 [nM]
1 | Cc1ccc2c(N)c(C(=O)N[C@@H]3COc4cc(N5CCN[C@H](C)[C@@H]5C)ccc4C3)sc2n1 (single isomer, unassigned) [Example 1-10] | 1 to 50
2 | Cc1ccc2c(N)c(C(=O)N[C@H]3COc4cc(N5CC6CC(C5)N6)ccc4C3)sc2n1 [Example 2-2, N-((3R)-7-(3,6-diazabicyclo[3.1.1]heptan-3-yl)chroman-3-yl)-3-amino-6-methylthieno[2,3-b]pyridine-2-carboxamide] | 1 to 50
3 | Cc1ccc2c(N)c(C(=O)N[C@H]3COc4cc(N5CCN[C@@H](C)C5)ccc4C3)sc2n1 [Example 2-8, 3-amino-6-methyl-N-((R)-7-((S)-3-methylpiperazin-1-yl)chroman-3-yl)thieno[2,3-b]pyridine-2-carboxamide] | 1 to 50
4 | Cc1nc2sc(C(=O)N[C@@H]3COc4cc(N5CC6CCC(C5)N6)cc(F)c4C3)c(N)c2s1 (single isomer, unassigned) [Example 1-40] | 200 to 2000
5 | CCn1ccc2cc(C(=O)N[C@@H]3COc4cc(N5CC6CCC(C5)N6)ccc4C3)cnc21 (single isomer, unassigned) [Example 1-27] | 200 to 2000
6 | Cc1nc2sc(C(=O)N[C@H]3COc4cc(N5CC6CC(C5)N6)ccc4C3)c(N)c2s1 [Example 2-26, N-((3R)-7-(3,6-diazabicyclo[3.1.1]heptan-3-yl)chroman-3-yl)-6-amino-2-methylthieno[2,3-d]thiazole-5-carboxamide] | 50 to 200
7 | Cc1nc2sc(C(=O)N[C@H]3COc4cc(N5CC6CCC(C5)N6)cc(F)c4C3)c(N)c2s1 (single isomer, unassigned) [Example 1-39] | 1 to 50
8 | Cc1cc(C)c2c(N)c(C(=O)N[C@H]3COc4cc(N5CC6CC(C5)N6)ccc4C3)sc2n1 [Example 2-18, N-((3R)-7-(3,6-diazabicyclo[3.1.1]heptan-3-yl)chroman-3-yl)-3-amino-4,6-dimethylthieno[2,3-b]pyridine-2-carboxamide] | 1 to 50
9 | Cc1ccc2c(N)c(C(=O)N[C@H]3COc4cc(N5CCC[C@@](N)(C(F)(F)F)C5)ccc4C3)sc2n1 (single isomer, unassigned) [Example 3-3] | 1 to 50
10 | CO[C@@H]1CN(c2ccc3c(c2)OC[C@H](NC(=O)c2sc4nc(C)ccc4c2N)C3)C[C@H]1N (single isomer, unassigned) [Example 3-2] | 1 to 50
11 | Cc1ccc2c(N)c(C(=O)N[C@H]3COc4cc(N5CCC[C@](N)(C(F)(F)F)C5)ccc4C3)sc2n1 (single isomer, unassigned) [Example 3-4] | 1 to 50
12 | Cc1ccc2c(N)c(C(=O)N[C@@H]3COc4cc(N5CC6CC(C5)N6)cc(F)c4C3)sc2n1 (single isomer, unassigned) [Example 1-41] | 1 to 50
13 | Cc1ccc2c(N)c(C(=O)N[C@H]3COc4cc(N5CCNC[C@@H]5C)ccc4C3)sc2n1 [Example 2-4, 3-amino-6-methyl-N-((R)-7-((S)-2-methylpiperazin-1-yl)chroman-3-yl)thieno[2,3-b]pyridine-2-carboxamide] | 1 to 50
14 | Cc1cc(C)c2c(N)c(C(=O)N[C@H]3COc4cc(N5CC6CNCC(C5)O6)ccc4C3)sc2n1 [Example 2-20, N-((3R)-7-(9-oxa-3,7-diazabicyclo[3.3.1]nonan-3-yl)chroman-3-yl)-3-amino-4,6-dimethylthieno[2,3-b]pyridine-2-carboxamide] | 1 to 50
15 | Cc1cnc2c(N)c(C(=O)N[C@H]3CCc4cc(N5CCNCC5)c(C)cc4C3)sc2n1 (single isomer, unassigned) [Example 2-34] | 50 to 200
16 | Cc1ccc2c(N)c(C(=O)N[C@@H]3COc4cc(N5CC6CCCC(C5)N6)ccc4C3)sc2n1 (single isomer, unassigned) [Example 1-6] | 50 to 200
17 | Cc1ccc2c(N)c(C(=O)N[C@H]3COc4cc(N5CCNCC56COC6)ccc4C3)sc2n1 [Example 2-10] | 1 to 50

Row | SMILES | IC50 [nM]
18 | Cc1ccc2c(N)c(C(=O)N[C@H]3COc4cc(N5C6CCC5CNC6)ccc4C3)sc2n1 [Example 2-6, N-((3R)-7-(3,8-diazabicyclo[3.2.1]octan-8-yl)chroman-3-yl)-3-amino-6-methylthieno[2,3-b]pyridine-2-carboxamide] | 1 to 50
19 | COc1nc2sc(C(=O)N[C@H]3COc4cc(N5CCNCC5)ccc4C3)c(N)c2cc1F [Example 2-16, (R)-3-amino-5-fluoro-6-methoxy-N-(7-(piperazin-1-yl)chroman-3-yl)thieno[2,3-b]pyridine-2-carboxamide] | 50 to 200
20 | Cc1cnc2c(N)c(C(=O)N[C@@H]3CCc4c(ccc(N5CCNCC5)c4C)C3)sc2n1 (single isomer, unassigned) [Example 2-37] | 1 to 50
21 | Cc1ccc2c(N)c(C(=O)N[C@H]3COc4cc(N5CC6CCC(C5)N6)ccc4C3)sc2n1 (single isomer, unassigned) [Example 1-3] | 1 to 50
22 | Cc1nc2sc(C(=O)N[C@@H]3COc4cc(N5CCNCC5)cc(F)c4C3)c(N)c2s1 (single isomer, unassigned) [Example 1-38] | 1 to 50
23 | Cc1ccc2c(N)c(C(=O)N[C@H]3COc4cc(N5CC6CNCC(C5)C6(F)F)ccc4C3)sc2n1 [Example 2-1, 3-Amino-N-((3R)-7-(9,9-difluoro-3,7-diazabicyclo[3.3.1]nonan-3-yl)chroman-3-yl)-6-methylthieno[2,3-b]pyridine-2-carboxamide] | 1 to 50
24 | CCn1ccc2cc(C(=O)N[C@H]3COc4cc(N5CC6CCC(C5)N6)ccc4C3)cnc21 (single isomer, unassigned) [Example 1-28] | 1 to 50
25 | Cc1cc(C)c2c(N)c(C(=O)N[C@H]3COc4cc(N5CC6CNCC(C5)C6(F)F)ccc4C3)sc2n1 [Example 2-19, 3-amino-N-((3R)-7-(9,9-difluoro-3,7-diazabicyclo[3.3.1]nonan-3-yl)chroman-3-yl)-4,6-dimethylthieno[2,3-b]pyridine-2-carboxamide] | 1 to 50
26 | Cc1ccc2c(N)c(C(=O)N[C@H]3COc4c(ccc(N5CCNCC5)c4F)C3)sc2n1 [Example 1-33, (R)-3-amino-N-(8-fluoro-7-(piperazin-1-yl)chroman-3-yl)-6-methylthieno[2,3-b]pyridine-2-carboxamide] | 1 to 50
27 | Cc1nc2sc(C(=O)N[C@H]3COc4cc(N5CC6CNCC(C5)C6(F)F)ccc4C3)c(N)c2s1 [Example 2-28, 6-amino-N-((3R)-7-(9,9-difluoro-3,7-diazabicyclo[3.3.1]nonan-3-yl)chroman-3-yl)-2-methylthieno[2,3-d]thiazole-5-carboxamide] | 1 to 50
28 | Cc1ccc2c(N)c(C(=O)N[C@H]3COc4cc(N5CCNC[C@H]5C)ccc4C3)sc2n1 [Example 2-5, 3-amino-6-methyl-N-((R)-7-((R)-2-methylpiperazin-1-yl)chroman-3-yl)thieno[2,3-b]pyridine-2-carboxamide] | 1 to 50
29 | Cc1cnc2c(N)c(C(=O)N[C@H]3CCc4c(ccc(N5CCNCC5)c4C)C3)sc2n1 (single isomer, unassigned) [Example 2-36] | 200 to 2000
30 | Cc1nc2sc(C(=O)N[C@H]3COc4cc(N5CC6CC(C5)N6)ccc4C3)c(N)c2cc1F [Example 2-15, N-((3R)-7-(3,6-diazabicyclo[3.1.1]heptan-3-yl)chroman-3-yl)-3-amino-5-fluoro-6-methylthieno[2,3-b]pyridine-2-carboxamide] | 1 to 50
31 | Cc1cc(C(F)(F)F)c2c(N)c(C(=O)N[C@H]3COc4cc(N5CC6CNCC(C5)C6(F)F)ccc4C3)sc2n1 [Example 2-22, 3-amino-N-((3R)-7-(9,9-difluoro-3,7-diazabicyclo[3.3.1]nonan-3-yl)chroman-3-yl)-6-methyl-4-(trifluoromethyl)thieno[2,3-b]pyridine-2-carboxamide] | 1 to 50
32 | Cc1ccc2c(N)c(C(=O)N[C@@H]3COc4cc(N5CC6CCC(C5)N6)cc(F)c4C3)sc2n1 (single isomer, unassigned) [Example 1-30] | 200 to 2000
33 | Cc1cc(C)c2c(N)c(C(=O)N[C@H]3COc4c(C#N)c(N5CCNCC5)cc(F)c4C3)sc2n1 [Example 2-31, (R)-3-amino-N-(8-cyano-5-fluoro-7-(piperazin-1-yl)chroman-3-yl)-4,6-dimethylthieno[2,3-b]pyridine-2-carboxamide] | 1 to 50
34 | Cc1ccc2c(N)c(C(=O)N[C@H]3COc4cc(N5CC6CC(C5)N6)cc(F)c4C3)sc2n1 (single isomer, unassigned) [Example 1-42] | 200 to 2000

— US11524966B1 (Valo Early Discovery, Inc., priority 2017, dated 2022)
